Test results from patent US8557816B2, “Aurora kinase modulators and method of use” (Amgen Inc., priority 2007, dated 2013).

Legend:
AuroraB = molecular target: T1, AuroraB (Homo sapiens, UniProt Q96GD4); experiment: AuroraB Homogeneous Time Resolved Fluorescent (HTRF) kinase assay; format: biochemical; conditions: average; read-out: AurB_IC50_IP (uM Avg)
T1 construct: 20 μL of AuroraB FL H is for a final volume of 41 μL; His
Procedure, shortened: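 Full-length His-tagged kinase phosphorylates biotinylated Histone H3 (0.1 μM final) with ATP in pH 7.5 HEPES containing MgCl, MnCl, DTT and BSA for about 90 min. EDTA-containing detection mix with SA-APC and Eu-anti-phosphoHistone H3 then equilibrated about 60 min; HTRF read with 320 nm excitation, emissions 615/655 nm.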

AuroraA-TPX2 = molecular target: T2, AuroraA-TPX2 (Homo sapiens, UniProt O14965); experiment: AuroraA-TPX2 Homogeneous Time Resolved Fluorescent (HTRF) kinase assay; format: biochemical; conditions: average; read-out: AurA_IC50_IP (uM Avg)
T2 construct: 20 μL of AuroraA-TPX2 KD GST for a final volume of about 41 μL; GST
T2 sequence (O14965 133-383 limits assumed): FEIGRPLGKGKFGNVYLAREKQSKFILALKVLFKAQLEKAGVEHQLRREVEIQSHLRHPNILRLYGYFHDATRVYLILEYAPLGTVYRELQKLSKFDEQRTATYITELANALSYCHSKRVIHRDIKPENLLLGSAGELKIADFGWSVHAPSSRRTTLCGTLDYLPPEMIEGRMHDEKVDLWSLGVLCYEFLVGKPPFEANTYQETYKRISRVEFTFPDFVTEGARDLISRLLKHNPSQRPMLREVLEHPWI
T2 sequence (Q9ULW0 1-43 partner limits assumed): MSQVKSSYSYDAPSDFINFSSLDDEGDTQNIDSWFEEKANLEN
Procedure, shortened: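 HTRF read-out (Eu 615 nm to APC 655 nm) of phosphorylated biotin-PLK, detected with 0.02 nM europium anti-phosphoPLK antibody and 0.0005 mg/mL SA-APC after overnight equilibration.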

T1 sequence (Q96GD4 whole entry): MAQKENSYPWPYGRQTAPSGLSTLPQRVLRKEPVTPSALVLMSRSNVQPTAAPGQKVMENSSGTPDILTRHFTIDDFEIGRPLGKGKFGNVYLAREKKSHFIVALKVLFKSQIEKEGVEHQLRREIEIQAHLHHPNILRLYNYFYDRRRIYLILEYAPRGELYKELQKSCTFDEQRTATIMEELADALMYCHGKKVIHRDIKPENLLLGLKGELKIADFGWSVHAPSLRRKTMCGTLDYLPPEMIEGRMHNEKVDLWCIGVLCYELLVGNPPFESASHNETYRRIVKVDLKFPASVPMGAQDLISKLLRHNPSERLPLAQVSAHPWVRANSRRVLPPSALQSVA

Compound	IC50 (AuroraB)	IC50 (AuroraA-TPX2)
COc1cnc2c(Sc3ccc(Nc4nnc(Cl)c5ccccc45)cc3)ccnc2c1 [compound 536]	0.031 µM	0.812 µM
COc1cnc2c(Sc3ccc(Nc4nnc(NCCc5ccccn5)c5ccccc45)cc3)ccnc2c1 [compound 537]	0.111 µM	0.198 µM
COc1cnc2c(Sc3ccc(Nc4nnc(N5CCC(N6CCCC6)CC5)c5ccccc45)cc3)ccnc2c1 [compound 538]	0.045 µM	3.43 µM
COc1cnc2c(Sc3ccc(Nc4nnc(C5CC5)c5ccccc45)cc3)ccnc2c1 [compound 541]	0.025 µM	0.393 µM
COc1cnc2c(Sc3ccc(Nc4nncc5ccccc45)cc3)ccnc2c1 [compound 547, N-(4-((7-methoxy-1,5-naphthyridin-4-yl)sulfanyl)phenyl)-1-phthalazinamine]	0.02 µM	0.335 µM
COc1ccc2nccc(Sc3ccc(Nc4nnc(N5CCCCC5)c5ccccc45)cc3)c2n1 [compound 548]	0.031 µM	0.27 µM
COc1ccc2nccc(Sc3ccc(Nc4nnc(-c5cc(C)cs5)c5ccccc45)cc3)c2n1 [compound 549]	0.064 µM	0.098 µM
Cc1ccc(-c2nnc(Nc3ccc(Sc4ccnc5cccnc45)cc3)c3ccccc23)cn1 [compound 553]	0.005 µM	0.042 µM
COc1cnc2c(Sc3ccc(Nc4nnc(N5CCCC(C)(C)C5)c5ccccc45)cc3)ccnc2c1 [compound 555]	0.105 µM	0.102 µM
COc1cnc2c(Sc3ccc(Nc4nnc(N5CC(C)CC(C)C5)c5ccccc45)cc3)ccnc2c1 (stereo not shown) [compound 556]	0.159 µM	0.116 µM
COc1cnc2c(Sc3ccc(Nc4nnc(N5CCC(F)CC5)c5ccccc45)cc3)ccnc2c1 [compound 557]	0.059 µM	0.161 µM
COc1cnc2c(Sc3ccc(Nc4nnc(C(C)C)c5ccccc45)cc3)ccnc2c1 [compound 558]	0.041 µM	0.378 µM
COc1cnc2c(Sc3ccc(Nc4nnc(N5CCN6CCC[C@H]6C5)c5ccccc45)cc3)ccnc2c1 [compound 563]	0.009 µM	0.023 µM
FC(F)(F)Oc1ccc2nccc(Sc3ccc(Nc4nnc(-c5ccccc5)c5ccccc45)cc3)c2c1 [compound 571]	> 25 µM	> 25 µM
Cc1csc(-c2nnc(Nc3ccc(Sc4ccnc5ccc(OC(F)(F)F)cc45)cc3)c3ccccc23)c1 [compound 572]	> 25 µM	> 25 µM
COc1cnc2c(Sc3ccc(Nc4nnc(N5CCn6ccnc6C5)c5ccccc45)cc3)ccnc2c1 [compound 576]	0.026 µM	0.077 µM
c1ccc(-c2nnc(Nc3ccc(Sc4ccnc5c4CCCN5)cc3)c3ccccc23)cc1 [compound 577]	0.021 µM	0.428 µM
COc1cnc2c(Sc3ccc(Nc4nnc(N5CCc6sccc6C5)c5ccccc45)cc3)ccnc2c1 [compound 578]	0.081 µM	0.033 µM
COc1cnc2c(Sc3ccc(Nc4nnc(N5CCn6ncnc6C5)c5ccccc45)cc3)ccnc2c1 [compound 579]	0.032 µM	0.228 µM
COc1cnc2c(Sc3ccc(Nc4nnc(N5CCN6CCCC[C@@H]6C5)c5ccccc45)cc3)ccnc2c1 [compound 580]	0.005 µM	0.023 µM
COc1cnc2c(Sc3ccc(Nc4nnc(N5CCN6CCC[C@@H]6C5)c5ccccc45)cc3)ccnc2c1 [compound 582]	0.006 µM	0.029 µM
COc1cnc2c(Sc3ccc(Nc4nnc(N5CCN6CCCC[C@@H]6C5)c5ccccc45)cc3)ccnc2c1 [compound 584]	0.005 µM	0.009 µM
COc1cnc2c(Sc3ccc(Nc4nnc(N5CCN6CCCC[C@H]6C5)c5ccccc45)cc3)ccnc2c1 [compound 585]	0.006 µM	0.036 µM
COc1cnc2c(Oc3ccc(Nc4nnc(N5CC[C@H]6CCCC[C@@H]6C5)c5ccccc45)cc3)ccnc2c1 [compound 586]	0.042 µM	0.124 µM
COc1cnc2c(Oc3ccc(Nc4nnc(N5CC[C@@H]6CCCC[C@H]6C5)c5ccccc45)cc3)ccnc2c1 [compound 587]	0.033 µM	0.217 µM
Cc1csc(-c2nnc(Nc3ccc(Sc4ccnc5ccc(=O)[nH]c45)cc3)c3ccccc23)c1 [compound 589]	0.008 µM	0.019 µM

Next, values leading:

IC50 (AuroraB)	IC50 (AuroraA-TPX2)	Compound
0.02 µM	0.133 µM	COc1cnc2c(Oc3ccc(Nc4nnc(-c5cc(F)cc(F)c5)c5ccccc45)cc3)ccnc2c1 [compound 539]
0.041 µM	0.319 µM	COc1cnc2c(Oc3ccc(Nc4nncc5ccccc45)cc3)ccnc2c1 [compound 542, N-(4-((7-methoxy-1,5-naphthyridin-4-yl)oxy)phenyl)-1-phthalazinamine]
0.044 µM	0.581 µM	COc1cnc2c(Oc3ccc(Nc4nnc(C5CC5)c5ccccc45)cc3)ccnc2c1 [compound 543]
0.02 µM	0.085 µM	COc1cnc2c(Oc3ccc(Nc4nnc(-c5ccc(C)c(N)c5)c5cc(F)c(F)cc45)cc3)ccnc2c1 [compound 545]
0.135 µM	0.723 µM	COc1cnc2c(Oc3ccc(Nc4nnc(-c5ccccc5Cl)c5ccccc45)cc3)ccnc2c1 [compound 546]
0.022 µM	0.107 µM	COc1ccc2nccc(Sc3ccc(Nc4nnc(-c5ccc(Cl)cn5)c5ccccc45)cc3)c2n1 [compound 550]
0.017 µM	0.096 µM	COc1ccc2nccc(Oc3ccc(Nc4nnc(-c5ccc6c(c5)OCO6)c5ccccc45)cc3)c2n1 [compound 551]
0.036 µM	0.056 µM	COc1ccc2nccc(Oc3ccc(Nc4nnc(-c5cc(C)cs5)c5ccccc45)cc3)c2n1 [compound 552]
0.011 µM	0.172 µM	COc1ccc2nccc(Oc3ccc(Nc4nnc(-c5ccc(C)cn5)c5ccccc45)cc3)c2c1 [compound 554]
0.098 µM	0.168 µM	Cc1cc2nccc(Sc3ccc(Nc4nnc(-c5ccc(Cl)cc5)c5ccccc45)cc3)c2s1 [compound 559]
0.081 µM	0.416 µM	Cc1cc2nccc(Sc3ccc(Nc4nnc(-c5ccc(Cl)cn5)c5ccccc45)cc3)c2s1 [compound 560]
> 5 µM	> 25 µM	c1ccc(-c2nnc(Nc3ccc(Sc4ncnc5ccccc45)cc3)c3ccccc23)cc1 [compound 561]
0.006 µM	0.107 µM	Clc1ccc(-c2nnc(Nc3ccc(Oc4ncnc5ccccc45)cc3)c3ccccc23)cc1 [compound 562]
0.129 µM	> 25 µM	COc1ccc2ncnc(Oc3ccc(Nc4nnc(-c5ccc(Cl)cc5)c5ccccc45)cc3)c2c1 [compound 564]
0.108 µM	0.686 µM	COc1ccc2ncnc(Oc3ccc(Nc4nnc(-c5cc(C)cs5)c5ccccc45)cc3)c2c1 [compound 565]
0.043 µM	0.093 µM	COc1cnc2c(Oc3ccc(Nc4nnc(-c5ccc(Cl)cc5)c5ccccc45)cc3OC)ccnc2c1 [compound 566]
0.041 µM	0.092 µM	COc1cnc2c(Oc3ccc(Nc4nnc(-c5cc(C)cs5)c5ccccc45)cc3OC)ccnc2c1 [compound 567]
0.011 µM	0.233 µM	Cc1csc(-c2nnc(Nc3ccc(Oc4ncnc5ccccc45)cc3)c3ccccc23)c1 [compound 568]
0.013 µM	0.128 µM	O=c1ccc2nccc(Oc3ccc(Nc4nnc(-c5ccc(Cl)cc5)c5ccccc45)cc3)c2[nH]1 [compound 569]
0.008 µM	0.05 µM	Clc1ccc(-c2nnc(Nc3ccc(Sc4ccnc5c4CCCN5)cc3)c3ccccc23)cc1 [compound 570]
0.114 µM	0.042 µM	COc1cc(OC)c2c(Oc3ccc(Nc4nnc(-c5cc(C)cs5)c5ccccc45)cc3)ncnc2c1 [compound 573]
0.365 µM	0.752 µM	FC(F)(F)Oc1ccc2nccc(Oc3ccc(Nc4nnc(-c5ccc(Cl)cc5)c5ccccc45)cc3)c2c1 [compound 574]
0.81 µM	0.226 µM	Cc1csc(-c2nnc(Nc3ccc(Oc4ccnc5ccc(OC(F)(F)F)cc45)cc3)c3ccccc23)c1 [compound 575]
0.236 µM	1.13 µM	COc1cc(OC)c2c(Sc3ccc(Nc4nnc(-c5ccccc5)c5ccccc45)cc3)ncnc2c1 [compound 581]
0.008 µM	0.028 µM	COc1cnc2c(Sc3ccc(Nc4nnc(-c5ccc(OC)nc5)c5ccccc45)cc3)ccnc2c1 [compound 583]
0.017 µM	0.051 µM	COc1cnc2c(Sc3ccc(Nc4nnc(-c5ccc(C)nc5)c5ccccc45)cc3)ccnc2c1 [compound 588]
0.02 µM	0.027 µM	COc1cc(OC)c2c(Oc3ccc(Nc4nnc(-c5ccc(Cl)cc5)c5ccccc45)cc3)ncnc2c1 [compound 590]
0.005 µM	0.25 µM	Clc1ccc(-c2nnc(Nc3ccc(Oc4ncnc5ccsc45)cc3)c3ccccc23)cc1 [compound 591]
0.022 µM	0.338 µM	N#Cc1ccc2nccc(Oc3ccc(Nc4nnc(-c5ccccc5)c5ccccc45)cc3)c2c1 [compound 592]
0.082 µM	0.526 µM	COCc1cc(-c2ccccc2)nnc1Nc1ccc(Oc2ccnc3cc(OC)cnc23)cc1 [compound 593]
